Read-outs that look alike come from different tables or passages of the source. Positions of bridges follow the written chain, without caps; N, C: chain ends. Non-standard residues stand in square brackets, D forms with d. Residues, ends and D or L forms follow the SMILES beside them. NMeNle = CCCC[C@H](NC)C(=O)O; NMeA = CN[C@@H](C)C(=O)O; Sar = CNCC(=O)O
How the values were obtained:
[1] = biological target: T1, human PD-L1 (Homo sapiens, UniProt Q9NZQ7); set-up: method as in doi:10.14205/2309-4435.2013.01.01.6
T1 construct: purchased Cisbio Bioassays SAS 64PD1PEG

[2] = biological target: T1, human PD-L1; experiment: HTRF PD-1/PD-L1 Binding Assay Kit (Cisbio); conditions: for BEI (binding efficiency index): BEI = −logIC50/(molecular weight/1000); for LE (ligand efficiency): LE = −1.4(logIC50)/Nheavy atoms; for LELP (ligand-efficiency-dependent lipophilicity efficiency): LELP = µHPLC logPOWpH 7.4/LE; for LLE (ligand lipophilicity efficiency): LLE = −logIC50 − µHPLC logPOWpH 7.4
[3] = In-solution stability in 1:1 DMSO/HEPES buffer (HPLC); conditions: for remained intact: within the 20-day time period; for decomposition of the parent compound: 20 days
[4] = HPLC lipophilicity measurement (µHPLC logPOWpH 7.4, logD); assay type: physicochemical; conditions: HPLC on an apHera column (retention time method); pH 7.4, HPLC method, mean ± SD
Method: An equilibration time of 2 min before measurements was set. Solvent “A” consisted of methanol (Merck KGaA, Darmstadt, Germany) and solvent “B” of 10 mM sodium phosphate buffer pH 7.4. […] The measurements of lipophilicity of precursors and products were performed according to the HPLC method of Donovan and Pescatore and Vraka et al.. […] Three logP values of the reference substances were taken from the literature, resulting in a mean logP value of the analyte ( μHPLC logPOWpH 7.4analyte) . Furthermore, the values were compared to calculated logP (clogP) and topological polar surface area (tPSA) values from ChemDraw 20.1 (PerkinElmer, Inc., Waltham, MA, USA) as well as clogDpH7.4 values from MarvinSketch 22.13 (ChemAxon Ltd., Budapest, Hungary).

[5] = tested on: hPD-L1; set-up: method as in earlier work; conditions: HTRF assay; cited from earlier work
[6] = Metabolic stability in human liver microsomes; assay type: in vitro ADME; conditions: incubation for 40 min
Method: Metabolic stability was assessed using pooled, mixed gender human liver microsomes (HLMs) (Corning, Corning, NY, USA) according to the supplied protocol. In short, 15 µL of HLM (20 mg/mL), 15 µL of NADPH regenerating system solution A (Corning, Corning, NY, USA), 3 µL of solution B (Corning, Corning, NY, USA) and 257 µL of a 1:10 dilution of 10× PBS concentrate (MORPHISTO, Offenbach am Main, Germany) were pre-incubated at 37 °C for 10 min. Aliquots were drawn 0, 10, 20, 30 and 40 min after addition of 10 µL radiotracer, subsequently quenched with the same amount of MeCN, centrifuged for 4 min at 21,500× g and analyzed by HPLC setup 3.

T1 sequence (Q9NZQ7 19-238 limits assumed): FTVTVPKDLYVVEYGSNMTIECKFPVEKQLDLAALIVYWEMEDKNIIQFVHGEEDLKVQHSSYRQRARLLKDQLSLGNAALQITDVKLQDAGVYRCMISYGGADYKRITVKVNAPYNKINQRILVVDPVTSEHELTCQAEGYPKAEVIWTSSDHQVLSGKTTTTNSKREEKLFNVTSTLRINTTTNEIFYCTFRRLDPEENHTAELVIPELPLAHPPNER

Molecule	remained intact [3]	chromatographic logD [4]	BEI (binding efficiency index) [2]	LE (ligand efficiency) [2]	LELP (ligand-efficiency-dependent lipophilicity efficiency) [2]	LLE (ligand lipophilicity efficiency) [2]	IC50 ([2]; read-out: IC50 (This Work))	decomposition of the parent compound [3]	further results
CCCC[C@H]1C(=O)N(C)[C@@H](CCCC)C(=O)N[C@@H](CCCNC(=N)N)C(=O)N[C@H](C(=O)NCC(N)=O)CSCC(=O)N[C@@H](Cc2ccccc2)C(=O)N(C)[C@@H](C)C(=O)N[C@@H](CC(N)=O)C(=O)N2CCC[C@H]2C(=O)N[C@@H](Cc2c[nH]cn2)C(=O)N[C@@H](CC(C)C)C(=O)N(C)CC(=O)N[C@@H](Cc2c[nH]c3ccccc23)C(=O)N[C@@H](CO)C(=O)N[C@@H](Cc2c[nH]c3ccccc23)C(=O)N1C [Inhibitor 3, reference compound] ({CH2CO}-F[NMeA]NPHL[Sar]WSW[NMeNle][NMeNle]RCG-NH2; thioether N-14; N-terminus and C-terminus assumed)	–	–	–	–	–	–	–	–	IC50 ([1]; read-out: IC50 (Cisbio); HTRF assay, vendor value; cited from earlier work): 146 nM; IC50 [2]: 113 ± 45 nM
COc1nc(OCc2cccc(-c3ccccc3)c2C)ccc1CNCCNC(C)=O [Substance 2, N-(2-(((2-methoxy-6-((2-methyl-[1,1′-biphenyl]-3-yl)methoxy)pyridin-3-yl)methyl)amino)ethyl)acetamide, reference compound]	–	3.88 ± 0.12	–	–	–	–	–	less than 2%	–
COc1nc(OCc2cccc(-c3ccccc3)c2C)ccc1CNCCN(C)C(C)=O [Substance 2b, N-(2-(((2-Methoxy-6-((2-methyl-[1,1′-biphenyl]-3-yl)methoxy)pyridin-3-yl)methyl)amino)ethyl)-N-methylacetamide]	over 85%	3.97 ± 0.13	14.5	0.27 kcal/mol/Heavy Atom	14.4	2.3	524 ± 67 nM	–	–
COc1nc(OCc2cccc(-c3ccccc3)c2C)ccc1CN(C)CCN(C)C(C)=O [Substance 2c, N-(2-(((2-Methoxy-6-((2-methyl-[1,1′-biphenyl]-3-yl)methoxy)pyridin-3-yl)methyl)(methyl)amino)ethyl)-N-methylacetamide]	–	4.28 ± 0.18	13.1	0.25 kcal/mol/Heavy Atom	17.1	1.6	1310 ± 185 nM	less than 2%	–
COc1nc(OCc2cccc(-c3ccccc3)c2C)ccc1CN([11CH3])CCNC(C)=O [[^11C]2a]	–	–	–	–	–	–	–	–	intact tracer [6]: ~ 90%
Atezolizumab: anti-PD-L1 antibody, positive control (MedChemExpress)	–	–	–	–	–	–	–	–	IC50 ([1]; HTRF assay, vendor value; read-out: IC50 (Cisbio); cited from earlier work): 3.84 nM; IC50 ([2]; HTRF PD-1/PD-L1 binding assay, mean ± SD, three experiments, read-out: IC50 (This Work)): 4.07 ± 0.42 nM

Continued, in another order:

remained intact [3]	chromatographic logD [4]	BEI (binding efficiency index) [2]	LE (ligand efficiency) [2]	LELP (ligand-efficiency-dependent lipophilicity efficiency) [2]	LLE (ligand lipophilicity efficiency) [2]	IC50 ([2]; read-out: IC50 (This Work))	decomposition of the parent compound [3]	Molecule	further results
over 85%	3.16 ± 0.16	–	–	–	–	–	–	COc1cc(OCc2cccc(-c3ccccc3)c2C)cc(OC)c1CN1CCCC[C@H]1C(=O)O [Substance 1, (S)-1-(2,6-dimethoxy-4-((2-methyl-[1,1′-biphenyl]-3-yl)methoxy)benzyl)piperidine-2-carboxylic acid, reference compound]	IC50 [5]: […]
over 85%	4.9 ± 0.27	10.7	0.20 kcal/mol/Heavy Atom	24.0	0.3	5760 ± 613 nM	–	COC(=O)[C@@H]1CCCCN1Cc1c(OC)cc(OCc2cccc(-c3ccccc3)c2C)cc1OC [Substance 1a, Methyl (S)-1-(2,6-Dimethoxy-4-((2-methyl-[1,1′-biphenyl]-3-yl)methoxy)benzyl)piperidine-2-carboxylate]	–
over 85%	5.02 ± 0.28	11.4	0.22 kcal/mol/Heavy Atom	22.9	0.9	1440 ± 144 nM	–	COc1cc(OCc2cccc(-c3ccccc3)c2C)cc(OC)c1CN1CCCC[C@H]1C(=O)OCCF [Substance 1b, 2-Fluoroethyl (S)-1-(2,6-Dimethoxy-4-((2-methyl-[1,1′-biphenyl]-3-yl)methoxy)benzyl)piperidine-2-carboxylate]	–
–	4.13 ± 0.16	14.7	0.28 kcal/mol/Heavy Atom	14.8	2.2	430 ± 62 nM	less than 2%	COc1nc(OCc2cccc(-c3ccccc3)c2C)ccc1CN(C)CCNC(C)=O [Substance 2a, N-(2-(((2-Methoxy-6-((2-methyl-[1,1′-biphenyl]-3-yl)methoxy)pyridin-3-yl)methyl)(methyl)amino)ethyl)acetamide]	fold reduced affinity compared to lead structure 2 ([2]; ratio of HTRF IC50 values): 4.3 fold
–	4.23 ± 0.17	9.9	0.19 kcal/mol/Heavy Atom	22.2	0.8	9880 ± 1390 nM	less than 2%	COc1nc(OCc2cccc(-c3ccccc3)c2C)ccc1CN(CCNC(C)=O)C(=O)OCCF [Substance 2d, 2-Fluoroethyl (2-Acetamidoethyl)((2-methoxy-6-((2-methyl-[1,1′-biphenyl]-3-yl)methoxy)pyridin-3-yl)methyl)carbamate]	dose-response curve in HTRF assay ([2]; HTRF binding curves): No full dose response curves were observed

Reference: PMC10385977, “On the Road towards Small-Molecule Programmed Cell Death 1 Ligand 1 Positron Emission Tomography Tracers: A Ligand-Based Drug Design Approach” (Pharmaceuticals, 2023)
